Assay results taken from paper PMC6295861, “Privileged Structures and Polypharmacology within and between Protein Families” (ACS Medicinal Chemistry Letters, 2018).
“And” between values parts separate entries of the source, which are not always exact repeats. Identical values can stand only once.

Tests used:
TAOK1 = target: T1, TAOK1 (Homo sapiens, UniProt Q7L7X3); test: Radio labeled filter binding kinase assay, TAOK1; format: biochemical; settings: mean of duplicates
T1 sequence (Q7L7X3 1-1001): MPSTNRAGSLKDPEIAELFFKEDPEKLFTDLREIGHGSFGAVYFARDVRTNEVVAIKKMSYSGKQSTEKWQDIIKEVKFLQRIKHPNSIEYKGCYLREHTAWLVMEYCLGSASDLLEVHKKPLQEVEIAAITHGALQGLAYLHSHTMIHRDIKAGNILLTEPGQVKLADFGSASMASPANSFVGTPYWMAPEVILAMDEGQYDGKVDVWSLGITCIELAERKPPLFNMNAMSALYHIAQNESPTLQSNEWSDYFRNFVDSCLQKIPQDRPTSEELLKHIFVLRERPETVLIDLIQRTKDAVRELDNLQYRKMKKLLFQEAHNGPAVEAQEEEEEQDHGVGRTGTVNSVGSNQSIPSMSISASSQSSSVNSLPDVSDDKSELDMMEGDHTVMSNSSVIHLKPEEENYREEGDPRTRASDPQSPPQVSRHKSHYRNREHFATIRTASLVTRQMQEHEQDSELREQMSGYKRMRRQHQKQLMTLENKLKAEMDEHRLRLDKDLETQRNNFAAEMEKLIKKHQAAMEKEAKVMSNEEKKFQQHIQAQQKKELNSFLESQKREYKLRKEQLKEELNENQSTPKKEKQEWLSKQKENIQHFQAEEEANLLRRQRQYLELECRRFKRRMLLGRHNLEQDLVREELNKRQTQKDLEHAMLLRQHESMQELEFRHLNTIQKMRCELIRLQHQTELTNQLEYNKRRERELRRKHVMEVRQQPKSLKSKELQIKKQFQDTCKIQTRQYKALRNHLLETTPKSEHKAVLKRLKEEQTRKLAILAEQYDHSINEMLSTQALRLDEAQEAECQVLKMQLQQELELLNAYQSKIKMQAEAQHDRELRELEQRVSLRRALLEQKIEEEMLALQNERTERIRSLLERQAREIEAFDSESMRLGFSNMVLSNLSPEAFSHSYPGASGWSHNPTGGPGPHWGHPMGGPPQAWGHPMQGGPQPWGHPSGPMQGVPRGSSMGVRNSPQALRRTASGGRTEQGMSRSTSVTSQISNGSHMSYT

[1] = target: cyclin-dependent kinase 9 (CDK9); design: method as in PMID 27746890; settings: cited from earlier work
HIPK2 = HIPK2 (Homo sapiens, UniProt Q9H2X6); test: Radio labeled filter binding kinase assay, HIPK2; format: biochemical
B-Raf (WT) = B-Raf (WT) (Homo sapiens, UniProt P15056); test: B-Raf Z'-LYTE cascade kinase assay (SelectScreen); format: biochemical; settings: ATP 100 μM, points 1 and 2, listed as CCT363294-01
B-Raf (WT), sequence (P15056 whole entry): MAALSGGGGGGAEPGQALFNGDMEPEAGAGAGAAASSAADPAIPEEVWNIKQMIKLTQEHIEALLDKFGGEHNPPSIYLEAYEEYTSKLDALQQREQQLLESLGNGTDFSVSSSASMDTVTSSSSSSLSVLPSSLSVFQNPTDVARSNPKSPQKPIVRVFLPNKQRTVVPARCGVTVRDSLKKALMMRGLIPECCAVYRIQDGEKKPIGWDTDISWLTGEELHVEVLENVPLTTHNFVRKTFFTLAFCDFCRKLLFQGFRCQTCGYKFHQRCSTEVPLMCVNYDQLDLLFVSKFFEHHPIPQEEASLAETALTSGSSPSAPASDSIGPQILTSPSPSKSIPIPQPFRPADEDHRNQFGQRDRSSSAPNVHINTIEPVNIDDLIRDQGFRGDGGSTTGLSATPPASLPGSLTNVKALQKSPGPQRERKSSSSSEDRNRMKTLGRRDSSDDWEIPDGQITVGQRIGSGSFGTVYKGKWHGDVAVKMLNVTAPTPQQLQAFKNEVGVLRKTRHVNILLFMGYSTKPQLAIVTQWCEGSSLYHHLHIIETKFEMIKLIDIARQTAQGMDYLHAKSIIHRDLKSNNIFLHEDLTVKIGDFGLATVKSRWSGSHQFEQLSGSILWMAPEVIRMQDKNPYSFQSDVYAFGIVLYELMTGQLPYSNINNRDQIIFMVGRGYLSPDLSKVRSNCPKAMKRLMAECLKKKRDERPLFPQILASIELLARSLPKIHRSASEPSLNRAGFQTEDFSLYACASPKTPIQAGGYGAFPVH

HIPK2, sequence (Q9H2X6 whole entry): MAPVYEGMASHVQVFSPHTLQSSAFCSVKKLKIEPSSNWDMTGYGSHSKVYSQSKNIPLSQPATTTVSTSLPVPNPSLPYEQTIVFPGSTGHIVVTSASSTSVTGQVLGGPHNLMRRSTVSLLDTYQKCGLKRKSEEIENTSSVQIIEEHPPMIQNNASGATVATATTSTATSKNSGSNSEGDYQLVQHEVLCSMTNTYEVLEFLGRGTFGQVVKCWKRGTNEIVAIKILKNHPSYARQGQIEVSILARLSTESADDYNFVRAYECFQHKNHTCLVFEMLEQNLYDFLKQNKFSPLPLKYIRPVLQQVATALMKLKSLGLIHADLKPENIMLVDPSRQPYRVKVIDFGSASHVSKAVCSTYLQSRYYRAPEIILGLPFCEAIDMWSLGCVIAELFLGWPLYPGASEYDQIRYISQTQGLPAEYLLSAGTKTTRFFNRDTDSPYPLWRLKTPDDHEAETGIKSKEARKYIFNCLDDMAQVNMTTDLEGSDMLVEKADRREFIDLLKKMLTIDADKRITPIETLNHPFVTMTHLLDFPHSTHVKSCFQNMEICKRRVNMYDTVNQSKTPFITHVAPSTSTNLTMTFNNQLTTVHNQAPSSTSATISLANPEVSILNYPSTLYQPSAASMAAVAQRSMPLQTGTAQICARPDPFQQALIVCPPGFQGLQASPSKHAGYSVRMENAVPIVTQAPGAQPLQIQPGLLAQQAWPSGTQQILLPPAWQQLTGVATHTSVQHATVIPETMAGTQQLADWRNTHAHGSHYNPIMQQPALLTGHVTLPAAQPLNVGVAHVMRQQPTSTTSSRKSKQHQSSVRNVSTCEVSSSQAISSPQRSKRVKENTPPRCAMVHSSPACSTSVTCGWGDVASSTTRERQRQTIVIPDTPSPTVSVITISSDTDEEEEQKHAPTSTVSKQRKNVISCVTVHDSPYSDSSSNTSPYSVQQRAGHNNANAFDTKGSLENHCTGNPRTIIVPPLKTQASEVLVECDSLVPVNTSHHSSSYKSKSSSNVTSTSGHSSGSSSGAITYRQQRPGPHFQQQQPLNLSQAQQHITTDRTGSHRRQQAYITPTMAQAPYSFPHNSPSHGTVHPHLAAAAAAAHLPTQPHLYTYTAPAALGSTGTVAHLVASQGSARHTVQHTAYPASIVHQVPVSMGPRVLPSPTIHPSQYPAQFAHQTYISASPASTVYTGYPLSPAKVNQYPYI

c1cnc2ncn(-c3cc(Nc4ccc(OCCN5CCCCC5)cn4)ncn3)c2c1 [Compd 1]
activity at 0.0003 µM (TAOK1; 0.0003 µM compound): 108% | activity at 0.001 µM (TAOK1; 0.001 µM compound): 95% | activity at 0.003 µM (TAOK1; 0.003 µM compound): 111% | activity at 0.01 µM (TAOK1; 0.01 µM compound): 116% | activity at 0.03 µM (TAOK1; 0.03 µM compound): 109% | activity at 0.1 µM (TAOK1; 0.1 µM compound): 82% | activity at 0.3 µM (TAOK1; 0.3 µM compound): 69% | activity at 1 µM (TAOK1; 1 µM compound): 46% | activity at 3 µM (TAOK1; 3 µM compound): 20% | activity at 10 µM (TAOK1; 10 µM compound): 11% | IC50 [1]: ≤ 3 nM | activity at 0.0003 µM (HIPK2; 0.0003 µM compound, duplicates): 99% | HIPK2 % activity (HIPK2; 0.0003 µM compound, duplicates, listed as CCT250006, 0.0003 µM): 95% | activity at 0.001 µM (HIPK2; 0.001 µM compound, duplicates): 94% | HIPK2 % activity (HIPK2; 0.001 µM compound, duplicates, listed as CCT250006, 0.001 µM): 107% | HIPK2 % activity (HIPK2; 0.003 µM compound, duplicates, listed as CCT250006, 0.003 µM): 95% and 121% | activity at 0.01 µM (HIPK2; 0.01 µM compound, duplicates): 86% | HIPK2 % activity (HIPK2; 0.01 µM compound, duplicates, listed as CCT250006, 0.01 µM): 88% | activity at 0.03 µM (HIPK2; 0.03 µM compound, duplicates): 43% | HIPK2 % activity (HIPK2; 0.03 µM compound, duplicates, listed as CCT250006, 0.03 µM): 39% | activity at 0.1 µM (HIPK2; 0.1 µM compound, duplicates): 26% | HIPK2 % activity (HIPK2; 0.1 µM compound, duplicates, listed as CCT250006, 0.1 µM): 35% | activity at 0.3 µM (HIPK2; 0.3 µM compound, duplicates): 9% | HIPK2 % activity (HIPK2; 0.3 µM compound, duplicates, listed as CCT250006, 0.3 µM): 11% | activity at 1 µM (HIPK2; 1 µM compound, duplicates): 6% | HIPK2 % activity (HIPK2; 1 µM compound, duplicates, listed as CCT250006, 1 µM): 5% | HIPK2 % activity (HIPK2; 3 µM compound, duplicates, listed as CCT250006, 3 µM): 1% and 4% | HIPK2 % activity (HIPK2; 10 µM compound, duplicates, listed as CCT250006, 10 µM): 1% and 5% | IC50 (HIPK2; SI Table S5, unit inferred, one per duplicate curve, read-out: HIPK2 IC50, fitted values above the IC50(µM) line): 0.0272 µM

CC(C)(C)N1CCN(Cc2ccc3cc(C(=O)Nc4cc(NC(=O)c5ccc6c(c5)OCCO6)ccc4Cl)ccc3n2)CC1 [Compd 8, 2-((4-(tert-butyl)piperazin-1-yl)methyl)-N-(2-chloro-5-(2,3-dihydrobenzo[b][1,4]dioxine-6-carboxamido)phenyl)quinoline-6-carboxamide]
% Inhibition BRAF (B-Raf (WT); 1.52 nM compound): -10% and -14% | % Inhibition BRAF (B-Raf (WT); 13.7 nM compound): -17% and -16% | % Inhibition BRAF (B-Raf (WT); 41.2 nM compound): -36% and -33% | % Inhibition BRAF (B-Raf (WT); 123 nM compound): -22% and -28% | % Inhibition BRAF (B-Raf (WT); 1110 nM compound): -4% and -8% | % Inhibition BRAF (B-Raf (WT); 3330 nM compound): 6% and -3%
